Counter-ions that a name gives are not always drawn.
Key:
[1] = Analgesic effect of aspirin in the presence of oleanolic acid; format: in vivo, rats; settings: Rattus norvegicus, read-out: ED50 (analgesic effect)
Procedure: (§1) The analgesic effect of the compound was tested in oral application to rats. 45 Minutes after application of the compound, the rats received an intraperitoneal injection of 1.0 ml 1% acetic acid. This causes a series of characteristic spasms in the untreated control animals. Analgesic effects are indicated by the reduction of the frequency of these spasms. The following results were obtained with the compound:
Measurement of the analgesic effect of the test compounds was done as set out in Test 1. The ED50 was computed for the various treatments as follows: […]

[2] = Acute toxicity of aspirin with and without oleanolic acid; format: in vivo; settings: mouse, in vivo, po, mice, mixture 1:1 mass ratio
mice [3] = test: as above; format: in vivo; settings: oral, males, mixture 1:1 mass ratio
[4] = Antithrombotic effect: pulmonary thrombo-embolism in animals treated with arachnidoic acid; format: in vivo; settings: for effect on occurrence of pulmonary thrombo-embolism: animals treated with arachnidoic acid
From the text: Oleanolic acid has no effect in this regard.

[5] = Anti-inflammatory effect: carrageenan induced rat paw oedema; format: in vivo
Procedure: The compounds (aspirin and oleanolic acid) were administered orally.

[6] = Healing effect on chemically induced ulceration (acetic acid); format: in vivo, rats; settings: 100 mg/kg per os twice daily, days 1-10; day 11; vs untreated control
Procedure: Ulceration was induced by injecting 30% acetic acid into the stomach of the animals on day zero. From day one onwards to day 10 the animals were treated twice daily with the protective compound (100 mg/kg; per os). On day 11 the extent of gastric damage was determined.

[7] = Gastric damage (HCl - Gastrin ulcer) caused by tetragastrin; format: in vivo, rats; settings: 100 mg/kg/treatment per os twice daily, days 1-14; tetragastrin 100 μg/kg/day i.p.; day 15; vs untreated control
Procedure: Each animal was treated with hydrochloric acid (0,2 ml of a 20% solution; per os) on day zero. From day one onwards to day 14 the animals were treated once daily with tetragastrin (100 μg/kg/day; intraperitoneal injection) and twice daily with the protective compound (100 mg/kg/treatment; per os in tragacanth). On day 15 the extent of gastric damage was determined.

[8] = Gastric damage caused by reserpine; format: in vivo, rats; settings: 100 mg/kg per os; reserpine 6 mg/kg s.c.; after 16 hours; vs untreated control
Procedure: The animals were treated with oleanolic acid (per os; tragacanth vehicle) and directly thereafter with reserpine (6 mg/kg; subcutaneous injection). After 16 hours the extent of gastic damage was determined.

[9] = Analgesic activity (acetic acid induced spasms); format: in vivo; settings: rats; for Average No. of spasms (25 mins): untreated control 43.75
Procedure: as §1, with “compound: […]” for “compound:”

mice [10] = test: Acute toxicity of oleanolic acid; format: in vivo; settings: oral route
[11] = Effect on gastric damage caused by indomethacin; format: in vivo, rats
Procedure: (§2) Gastric damage caused by irritant substances (e.g. aspirin, indomethacin or other acidic analgesic/anti-inflammatory drugs) is assessed by applying a suitable dose of the protective compound followed later by a relatively high dose of the irritant (in the case of aspirin, approximately 550 mg/kg). After a further 5 hours, the extent of gastric damage is determined.

[12] = oral; British Pat. No. 1,251,976, Example 10; cited from earlier work
[13] = Healing effect on thermally induced ulceration; format: in vivo, rats; settings: 100 mg/kg per os twice daily, days 1-13; day 14; vs untreated control
Procedure: Thermal stomach ulceration was induced on day zero by means of a heated (75° C.) stainless steel stamp (5 mm in diameter). From day one onwards to day 13 the animals were treated twice daily with oleanolic acid (100 mg/kg; per os in tragacanth). On day 14 the animals were examined for the extent of gastric damage.

[14] = Effect on gastric damage caused by aspirin; format: in vivo, rats; settings: aspirin approximately 550 mg/kg
Procedure: as §2

[15] = mice; Shibata 1981, p. 65; cited from earlier work
[16] = Activity against stress induced ulcers; format: in vivo; settings: 100 mg/kg, rats, 24 h plaster bandage; drug 1 h before and 6 h after
Procedure: The effect of compounds on this formation of stress ulcers is assessed by applying the drugs 1 hour before encasing the animals in the bandage and again 6 hours after encasing the animals. After 24 hours, the bandage is removed and gastric damage is assessed compared to that of untreated animals.

Question: For CC(=O)Oc1ccccc1C(=O)O [Aspirin], which ED50 ([1]; po) is on record?
Answer: 22.3 mg/kg

Question: What about the LD50 ([2]; combined) of the same compound?
Answer: 1800 mg/kg

Question: What about the LD50 ([2]; females) of the same compound?
Answer: 2100 mg/kg

Question: What about the “LD50” value (mice [3]) of the same compound?
Answer: 1110 mg/kg

Question: And the “effect on occurrence of pulmonary thrombo-embolism” value [4]?
Answer: inhibits the occurrence

Question: And the ED50 ([4]; read-out: ED50 (antithrombotic effect))?
Answer: 41 mg/kg

Question: And the “% inhibition of swelling” value ([5]; aspirin 25 mg/kg oral (combination: plus oleanolic acid 25 mg/kg), 1.5 hrs)?
Answer: 12%

Question: What about the “% inhibition of swelling” value ([5]; aspirin 25 mg/kg oral (combination: plus oleanolic acid 25 mg/kg), 3 hrs) of the same compound?
Answer: 17%

Question: What about the “% inhibition of swelling” value ([5]; aspirin 25 mg/kg oral (combination: plus oleanolic acid 25 mg/kg), 4.5 hrs) of the same compound?
Answer: 11%

Question: What about the “% inhibition of swelling” value ([5]; aspirin 25 mg/kg oral (combination: plus oleanolic acid 25 mg/kg), 6 hrs) of the same compound?
Answer: 18%

Question: And the “% inhibition of swelling” value ([5]; aspirin 50 mg/kg oral (combination: plus oleanolic acid 50 mg/kg), 1.5 hrs)?
Answer: 18%

Question: What about the “% inhibition of swelling” value ([5]; aspirin 50 mg/kg oral (combination: plus oleanolic acid 50 mg/kg), 3 hrs) of the same compound?
Answer: 32%

Question: And the “% inhibition of swelling” value ([5]; aspirin 50 mg/kg oral (combination: plus oleanolic acid 50 mg/kg), 4.5 hrs)?
Answer: 17%

Question: What about the “% inhibition of swelling” value ([5]; aspirin 50 mg/kg oral (combination: plus oleanolic acid 50 mg/kg), 6 hrs) of the same compound?
Answer: 16%

Question: And the “% inhibition of swelling” value ([5]; aspirin 100 mg/kg oral (combination: plus oleanolic acid 100 mg/kg), 1.5 hrs)?
Answer: 30%

Question: And the “% inhibition of swelling” value ([5]; aspirin 100 mg/kg oral (combination: plus oleanolic acid 100 mg/kg), 3 hrs)?
Answer: 42%

Question: And the “% inhibition of swelling” value ([5]; aspirin 100 mg/kg oral (combination: plus oleanolic acid 100 mg/kg), 4.5 hrs)?
Answer: 32%

Question: What about the “% inhibition of swelling” value ([5]; aspirin 100 mg/kg oral (combination: plus oleanolic acid 100 mg/kg), 6 hrs) of the same compound?
Answer: 23%

Question: What about the “% inhibition of swelling” value ([5]; aspirin 200 mg/kg oral (combination: plus oleanolic acid 200 mg/kg), 1.5 hrs) of the same compound?
Answer: 45%

Question: And the “% inhibition of swelling” value ([5]; aspirin 200 mg/kg oral (combination: plus oleanolic acid 200 mg/kg), 3 hrs)?
Answer: 52%

Question: What about the “% inhibition of swelling” value ([5]; aspirin 200 mg/kg oral (combination: plus oleanolic acid 200 mg/kg), 4.5 hrs) of the same compound?
Answer: 34%

Question: What about the “% inhibition of swelling” value ([5]; aspirin 200 mg/kg oral (combination: plus oleanolic acid 200 mg/kg), 6 hrs) of the same compound?
Answer: 30%

Question: Which “reduction of gastric damage (acetic acid ulceration)” value [6] does the source give for CC1(C)[C@@H](OC(=O)CCC(=O)O)CC[C@]2(C)[C@H]3C(=O)C=C4[C@@H]5C[C@@](C)(C(=O)O)CC[C@]5(C)CC[C@@]4(C)[C@]3(C)CC[C@@H]12 [Carbenoxolone sodium, disodium salt of the hemisuccinate of glycyrrhetinic acid, reference compound] here?
Answer: 42%

Question: Which “inhibition of gastric damage (HCl - Gastrin ulcer)” value [7] does the source give for CN/C(=N/CCSCc1nc[nH]c1C)NC#N [Cimetidine, reference compound] here?
Answer: 41%

Question: What does the source list for CC1(C)CC[C@]2(C(=O)O)CC[C@]3(C)C(=CC[C@@H]4[C@@]5(C)CC[C@H](O)C(C)(C)[C@@H]5CC[C@]43C)[C@@H]2C1 [Oleanolic acid, oleanolic acid]?
Answer: inhibition of reserpine induced gastric damage [8]: 25%; % Inhibition of spasms ([9]; 10 mg/kg oral): 8.6%; Average No. of spasms (25 mins) ([9]; 10 mg/kg oral): 40.0; % Inhibition of spasms ([9]; 31.6 mg/kg oral): 49.4%; Average No. of spasms (25 mins) ([9]; 31.6 mg/kg oral): 22.12; % Inhibition of spasms ([9]; 100 mg/kg oral): 65.7%; Average No. of spasms (25 mins) ([9]; 100 mg/kg oral): 15.10; ED50 ([1]; rats, oral, acetic acid spasms): 55.8 mg/kg; doses that did not cause any deaths (mice [10]): up to 4000 mg/kg; Percentage inhibition of Indomethacin induced gastric damage ([11]; 10 mg/kg): 61%; Percentage inhibition of Indomethacin induced gastric damage ([11]; 30 mg/kg): 66%; Percentage inhibition of Indomethacin induced gastric damage ([11]; 100 mg/kg): 80%; Percentage inhibition of Indomethacin induced gastric damage ([11]; 300 mg/kg): 86%; reduction in ulceration (glucose induced) [12]: 8%; inhibition of gastric damage (HCl - Gastrin ulcer) [7]: about 49%; effect on occurrence of pulmonary thrombo-embolism [4]: no effect; reduction of gastric damage (thermal ulceration) [13]: 59%; Percentage inhibition of Aspirin induced gastric damage ([14]; 30 mg/kg): 28%; Percentage inhibition of Aspirin induced gastric damage ([14]; 100 mg/kg): 49%; Percentage inhibition of Aspirin induced gastric damage ([14]; 300 mg/kg): 69%; inhibiting activity against stress-induced ulceration [15]: non-significant, if any, inhibiting activity; reduction of gastric damage (acetic acid ulceration) [6]: 73%; inhibition of the mean total ulceration score [16]: 83.5%

Question: With CC1(C)CC[C@]2(C(=O)O)CC[C@]3(C)C(=CC[C@@H]4[C@@]5(C)CC[C@H](O)C(C)(C)[C@@H]5CC[C@]43C)[C@@H]2C1 [Sodium oleanolate] as the compound, how does the “Percentage inhibition of Aspirin induced gastric damage” value ([14]; 30 mg/kg) read?
Answer: 1%

Question: And the “Percentage inhibition of Aspirin induced gastric damage” value ([14]; 100 mg/kg)?
Answer: 30%

Question: And the “Percentage inhibition of Aspirin induced gastric damage” value ([14]; 300 mg/kg)?
Answer: 47%

Question: With CC1(C)[C@@H](O)CC[C@]2(C)[C@H]3CC=C4[C@@H]5C[C@@](C)(CO)CC[C@]5(C)CC[C@@]4(C)[C@]3(C)CC[C@@H]12 [olean-12-en-3β, 30-diol, reference compound] as the compound, how does the “inhibiting activity against stress-induced ulceration” value [15] read?
Answer: promising inhibiting activity
